Tests used:
[1] = tested on: mustard plants; test: Comparison of herbicidal activity, track-sprayer application to mustard plants; assay type: in vivo; conditions: fifteen day mustard plants; sprayed at 0.25 and 1.0 mg/mL; counted on the 7th and 14th days; four replicates
Method: Synthesized thaxtomin A and thaxtomin A from fermentation were separately dissolved in ethanol first (final ethanol concentration in the spraying solution was 2%), then added into 0.2% Glycosperse O-20 water solution. Sonication completely dissolved the thaxtomin A. The concentration of thaxtomin A was 0.25 and 1.0 mg/mL. Water with 2% ethanol and 0.2% Glycosperse O-20 was used as a blank control. Fifteen day mustard plants were used in the experiments. Four replicates for each concentration of thaxtomin A were carried out. Spraying was performed using a Track Sprayer. The herbicidal activity was graded as percent control. Herbicidal activity was counted on the 7th and 14th days, respectively.

[2] = tested on: plant cells; conditions: Lawrence et al., 1990; cited from earlier work

Structure (SMILES)	herbicidal activity graded as percent control, synthesized vs natural thaxtomin A [1]	effect on plant cells [2]
CN1C(=O)[C@](O)(Cc2cccc(O)c2)N(C)C(=O)[C@@H]1Cc1c[nH]c2cccc([N+](=O)[O-])c12 [Synthesized thaxtomin A, Thaxtomin A]	no significant difference	hypertrophy of plant cells at nanomolar amounts
CN1C(=O)[C@](O)(Cc2cccc(O)c2)N(C)C(=O)[C@@H]1Cc1c[nH]c2cccc([N+](=O)[O-])c12 [thaxtomin A from fermentation, thaxtomin A]	no significant difference	
